In paper PMC11915811, “Conformational activation and disulfide exchange in HIV-1 Env induce cell-free lytic/fusogenic transformation and enhance infection” (Journal of Virology, 2025):
Entries after “also recorded” stand apart in the source; their conditions may differ. Like-named read-outs stand apart in the source and are kept apart here.

Columns and labels:
JRFL pseudovirus [1] = assay: Cell-free lysis of JRFL pseudovirus, p24 release detected by ELISA; conditions: 2 h at 37°C; for p24 leakage from JRFL pseudovirus with thiol compound in place of Trx1: 1,000 nM KR13b + 1,000 nM free cysteine or glutathione, mean of three independent experiments; for Lysis of JRFL pseudovirus in conjunction with Trx1 (in words): 1,000 nM compound + serial dilutions of Trx1
gp120 = conditions: read-out: Kd, gp120 binding affinity, cited from earlier work
JRFL pseudovirus [2] = type: cell-based, HIV-1; conditions: 1,000 nM Trx1; HOS CD4+ CCR5+ cells; normalized to pseudovirus + PBS
BaL.01 pseudovirus = type: cell-based, HIV-1; conditions: 1,000 nM Trx1; HOS CD4+ CCR5+ cells; normalized to pseudovirus + PBS
HXB2 pseudovirus = type: cell-based, HIV-1; conditions: 1,000 nM Trx1; HOS CD4+ CCR5+ cells; normalized to pseudovirus + PBS
VSV pseudovirus = type: cell-based, vesicular stomatitis virus

N[C@@H](CS)C(=O)O [cysteine]
p24 leakage from JRFL pseudovirus with thiol compound in place of Trx1 (JRFL pseudovirus [1]): Neither thiol compound caused leakage of p24 above background

CNCc1ccc2c(c1)C[C@H](CN=C(N)N)[C@H]2NC(=O)C(=O)Nc1ccc(Cl)c(F)c1.O=C(O)C(F)(F)F.O=C(O)C(F)(F)F [BNM-III-170]
Kd (gp120; ITC): 47 nM
Lysis of JRFL pseudovirus in conjunction with Trx1 (in words) (JRFL pseudovirus [1]): did cause lysis

N[C@@H](CCC(=O)N[C@@H](CS)C(=O)NCC(=O)O)C(=O)O [glutathione]
p24 leakage from JRFL pseudovirus with thiol compound in place of Trx1 (JRFL pseudovirus [1]): Neither thiol compound caused leakage of p24 above background

COc1ccnc2[nH]cc(C(=O)C(=O)N3CCN(C(=O)c4ccccc4)C[C@H]3C)c12 [BMS-806]
Kd (gp120; SPA (scintillation proximity assay)): 21.1 ± 1.9 nM
Lysis of JRFL pseudovirus in conjunction with Trx1 (in words) (JRFL pseudovirus [1]): did not

B1: Trx1: recombinant human thioredoxin-1, purchased from Cayman Chemical (protein)
chain: MVKQIESKTAFQEALDAAGDKLVVVDFSATWCGPCKMIKPFFHSLSEKYSNVIFLEVDVDDCQDVASECEVKCMPTFQFFKKGQKVGEFSGANKEKLEATINELV
Enhancement of pseudovirus infectivity (RLU) by exogenous Trx1 (JRFL pseudovirus [2]): at least doubling its RLU values
Enhancement of pseudovirus infectivity (RLU) by exogenous Trx1 (BaL.01 pseudovirus): at least doubling its RLU values
Enhancement of pseudovirus infectivity (RLU) by exogenous Trx1 (HXB2 pseudovirus): at least doubling its RLU values
Enhancement of VSV infection by Trx1 (VSV pseudovirus): 10–40%
p24 release / lysis of JRFL pseudovirus by the component alone (control) (JRFL pseudovirus [1]; serial dilutions of the single component, no partner): no significant p24 release; also recorded: negligible lysis
Effect of preincubating virus with one component on lysis (order of addition) (JRFL pseudovirus [1]; virus preincubated with 1,000 nM of labelled component for 0–30 min, then 1,000 nM of the other (KR13b or Trx1) added, versus no preincubation): significant decrease in lytic effect at 10 min
